Measured values: patent publication US12391737B2, “Soluble NPY2 receptor agonists” (Boehringer Ingelheim International GmbH, priority 2020, dated 2025)
pKi: −log10 of the molar value.

What was measured:
[1] = target: T1, Human Neuropeptide Y2 Receptor (Homo sapiens, UniProt P49146); test: Radioligand binding competition assay (RLB); details: Table 3, 125I-PYY(1-36) competition; read-out: Ki
T1 construct: purchased CHEMICON HTS066M
T1 sequence (P49146 1-381): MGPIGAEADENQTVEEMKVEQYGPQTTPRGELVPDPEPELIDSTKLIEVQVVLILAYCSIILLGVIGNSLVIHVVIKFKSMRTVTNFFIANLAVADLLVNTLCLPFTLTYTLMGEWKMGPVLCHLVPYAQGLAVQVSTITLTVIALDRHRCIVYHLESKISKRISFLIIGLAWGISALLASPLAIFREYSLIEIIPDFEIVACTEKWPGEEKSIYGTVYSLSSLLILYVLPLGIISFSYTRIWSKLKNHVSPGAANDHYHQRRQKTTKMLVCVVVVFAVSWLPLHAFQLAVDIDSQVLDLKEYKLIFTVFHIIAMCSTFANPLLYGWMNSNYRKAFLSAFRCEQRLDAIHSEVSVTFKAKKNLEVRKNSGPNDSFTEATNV
Summary of the method: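 IC50 values come from sigmoidal dose-response fits of scintillation counts after peptides competed for radioligand binding at receptor membranes (0.5 μg protein/well). Incubation ran 2 h at room temperature in HEPES buffer, pH 7.4, with Mg2+, Ca2+ and 0.2% ovalbumin.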

Solubility determination = details: for Sol6: pH 6; for Sol7: pH 7
Summary of the method: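 Shake-flask style: 10 mg/ml peptide (TFA salt), 0.1 M sodium diphosphate pH 6.4/7.0, 600 rpm, 2 h, RT; filter; dilute 1 mg/ml in 50% MeCN; RP-UPLC, 0–100% B over 2 min, 50 °C. Solubility = sample/control area ratio. Final pH recorded.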

Compound	pKi [1]	Sol6 (Solubility determination) [mg/mL]	Sol7 (Solubility determination) [mg/mL]
CC(C)CC(=O)N[C@@H](C)C(=O)N1CCC[C@H]1C(=O)N[C@@H](C)C(=O)N[C@@H](CCCCNC(=O)CCCCCNC(=O)CC[C@H](NC(=O)CCCCCCCCCCCCCCCCC(=O)O)C(=O)O)C(=O)N1CCC[C@H]1C(=O)N[C@@H](CCC(=O)O)C(=O)N[C@@H](CCC(=O)O)C(=O)N[C@@H](CC(=O)O)C(=O)N[C@@H](C)C(=O)N[C@@H](CO)C(=O)N1CCC[C@H]1C(=O)N[C@@H](CCC(=O)O)C(=O)N[C@@H](CCC(=O)O)C(=O)N[C@@H](CC(C)C)C(=O)N[C@@H](CCC(N)=O)C(=O)N[C@@H](CCCNC(=N)N)C(=O)N[C@@H](Cc1ccc(O)cc1)C(=O)N[C@@H](Cc1ccc(O)cc1)C(=O)N[C@H](C(=O)N[C@@H](CO)C(=O)N[C@@H](CC(C)C)C(=O)N[C@@H](CCCNC(=N)N)C(=O)N[C@@H](Cc1c[nH]cn1)C(=O)N[C@@H](Cc1ccc(O)cc1)C(=O)N[C@@H](CCC(N)=O)C(=O)N[C@@H](CC(N)=O)C(=O)N[C@@H](Cc1c[nH]c2ccccc12)C(=O)N[C@@H](CC(C)C)C(=O)N[C@H](C(=O)N[C@@H](CCCNC(=N)N)C(=O)N[C@@H](CCC(N)=O)C(=O)N[C@@H](CCCNC(=N)N)C(=O)N[C@@H](Cc1ccc(O)cc1)C(N)=O)[C@@H](C)O)C(C)C [Compound 77, N{alpha-4}-(3-methylbutanoyl)-N{epsilon-7}-(6-[(4S)-4-carboxy-4-(17-carboxyheptadecanamido)butanamido]hexanoyl)-[4A,6A,7K,9E,18Q,22V,28Q,30W,31L]-hPYY(4-36)]	8.01	>10.0	9.0
CC(C)CC(=O)N[C@@H](C)C(=O)N1CCC[C@H]1C(=O)N[C@@H](CCC(=O)O)C(=O)N[C@@H](CCCCNC(=O)CCCCCNC(=O)CC[C@H](NC(=O)CCCCCCCCCCCCCCCCC(=O)O)C(=O)O)C(=O)N1CCC[C@H]1C(=O)N[C@@H](CCC(=O)O)C(=O)N[C@@H](CCC(=O)O)C(=O)N[C@@H](CC(=O)O)C(=O)N[C@@H](C)C(=O)N[C@@H](CO)C(=O)N[C@@H](CCC(=O)O)C(=O)N[C@@H](C)C(=O)N[C@@H](CCC(=O)O)C(=O)N[C@@H](CC(C)C)C(=O)N[C@@H](CCC(N)=O)C(=O)N[C@@H](CCCNC(=N)N)C(=O)N[C@@H](Cc1ccc(O)cc1)C(=O)N[C@@H](Cc1ccc(O)cc1)C(=O)N[C@H](C(=O)N[C@@H](CO)C(=O)N[C@@H](CC(C)C)C(=O)N[C@@H](CCCNC(=N)N)C(=O)N[C@@H](Cc1c[nH]cn1)C(=O)N[C@@H](Cc1ccc(O)cc1)C(=O)N[C@@H](Cc1ccc(O)cc1)C(=O)N[C@@H](CC(N)=O)C(=O)N[C@@H](Cc1c[nH]c2ccccc12)C(=O)N[C@@H](CC(C)C)C(=O)N[C@H](C(=O)N[C@@H](CCCNC(=N)N)C(=O)N[C@@H](CCC(N)=O)C(=O)N[C@@H](CCCNC(=N)N)C(=O)N[C@@H](Cc1ccc(O)cc1)C(N)=O)[C@@H](C)O)C(C)C [Compound 80, N{alpha-4}-(3-methylbutanoyl)-N{epsilon-7}-(6-[(4S)-4-carboxy-4-(17-carboxyheptadecanamido)butanamido]hexanoyl)-[4A,7K,9E,14E,15A,18Q,22V,28Y,30W,31L]-hPYY(4-36)]	8.34	8.1	8.2
